“Also recorded” adds a separate entry of the source. Marks after values point to notes of the source that are not given here.

The subject of one data set is Yucatan swine skin. As to conditions: in vivo. The protocol: Seven sites measuring approximately 3 cm×3 cm were marked on each side of the animal's spine, between the shoulder blade and hipbone. The sites were far enough apart so that there was no cross-over. Multiple treatments were performed on the back of each animal. Each animal in the experiment received the same treatments. Each spot was topically treated with 20 μl of test solution applied twice daily, five days per week. This amounts to the same dose of active agent. Solutions were administered by pipetting the exact volume to the designated area with a micropipette and then spreading the solution. Each spot or test site on the animal's skin was graded 3 times a week on a scale of 0 to 4 for pigment change, erythema and scaling. Treatments were continued until pigmentation was reduced to a grade 1 level (marked uniform decrease in pigmentation) or for up to 12 weeks.

Data set [1] relates to skin pigmentation of Yucatan swine. The data set can be described thus: Reversibility of depigmentation (repigmentation) after treatment discontinuation. The data set is classed as in vivo. The conditions noted are these: 6 weeks after discontinuation following 12 weeks of topical treatment; 1% 4-cyclopentylresorcinol, 2% 4-cyclohexylresorcinol in HG/DMI/PG/EtOH (5/15/40/40). The protocol:
Each spot was topically treated with 20 μl of test solution applied twice daily, five days per week. This amounts to the same dose of active agent. Solutions were administered by pipetting the exact volume to the designated area with a micropipette and then spreading the solution. Each spot or test site on the animal's skin was graded 3 times a week on a scale of 0 to 4 for pigment change, erythema and scaling. Treatments were continued until pigmentation was reduced to a grade 1 level (marked uniform decrease in pigmentation) or for up to 12 weeks. Pigmentation was monitored for 6 weeks after discontinuation of treatment following 12 weeks of topical treatment with 1% 4-cyclopentylresorcinol and 2% 4-cyclohexylresorcinol in HG/DMI/PG/EtOH (5/15/40/40).

Data set [2] shares this test system. The experiment in a line: Depigmenting effect of topical application on dark-skinned Yucatan swine (pigment grade). As to conditions: for Mean pigment Grade +/− SD (Week 12): topical 20 μl twice daily, five days per week; for Mean pigment Grade +/− SD (Week 12) / mean pigment grade +/− SD: scale 0 to 4, 4 = normal skin color; for mean pigment grade +/− SD: collated experiments; for effect of HG/PG/DMI/EtOH vehicle on depigmenting action: HG/PG/DMI/EtOH with or without 2% (wt/wt) IPM, compared with PG/EtOH. The data set is classed as in vivo. On the procedure: The following nonlimiting examples further illustrate certain preferred embodiments of the present invention. The formulations were tested experimentally on Yucatan swine with dark skin. The Yucatan pigskin shares many physiologic and morphologic characteristics with human skin. For example, as described in U.S. Pat. No. 5,470,567, the thickness and general morphology of epidermis and dermis, tritiated thymidine labeling pattern and index of epidermal cells, epidermal cell turnover time, as well as size, orientation, and distribution of vessels in skin are similar to that in humans. Varying concentrations of 4-cyclopentylresorcinol and 4-cyclohexylresorcinol were administered to the back of Yucatan swine using various carriers. Yucatan swine with dark skin were used in this study. Swine were obtained from Charles River Laboratories, Windham, Me., and Sinclair Laboratories, MO. Seven sites measuring approximately 3 cm×3 cm were marked on each side of the animal's spine, between the shoulder blade and hipbone. The sites were far enough apart so that there was no cross-over. Multiple treatments were performed on the back of each animal. Each animal in the experiment received the same treatments. Each spot was topically treated with 20 μl of test solution applied twice daily, five days per week. This amounts to the same dose of active agent. Solutions were administered by pipetting the exact volume to the designated area with a micropipette and then spreading the solution. Each spot or test site on the animal's skin was graded 3 times a week on a scale of 0 to 4 for pigment change, erythema and scaling. Treatments were continued until pigmentation was reduced to a grade 1 level (marked uniform decrease in pigmentation) or for up to 12 weeks. Results were analyzed using different types of statistical analysis, ANOVA, Kruskal-Wallis test and Dunnett's multiple comparison, as indicated below. ANOVA is a statistical test that assumes sampled data is from populations that follow a Gaussian bell-shaped distribution and which works well, especially with large numbers, even if the distribution is only approximately Gaussian. The Kruskal-Wallis test is a nonparametric test that compares three or more unpaired groups. The Dunnett's test is a procedure for comparing each experimental mean with the control mean. For each graph presented, it is indicated which statistical tests were performed.

The mark [3] stands for this setting: 2% in HG/PG/DMI/EtOH (5/40/15/40).

For the compound `Oc1ccc(C2CCCCC2)c(O)c1` [4-cyclohexylresorcinol], the irritation entry in the data set on Yucatan swine skin is “No irritation was apparent”. Further, the “repigmentation after discontinuation of treatment” value in data set [1] is reported as “signs of gradual repigmentation”. In data set [2] (2% in DMI/HG/PG/EtOH, 0 = complete depigmentation), the “Mean pigment Grade +/− SD (Week 12)” value is listed as 3 +/− 0*. Further, the “mean pigment grade +/− SD” value in data set [2] (setting [3]) is on record as 2.8 +/− 0.6*; in data set [2] (2% in HG/PG/DMI/EtOH + 2% IPM), 2.4 +/− 1.1*; in data set [2] (2% in PG/EtOH (3/7)) it was 3.0 +/− 0.8; in data set [2] (5% in PG/EtOH (5/5)) it was 3.0 +/− 0*. The “effect of HG/PG/DMI/EtOH vehicle on depigmenting action” value in data set [2] was “improved the depigmenting action; also recorded: improved the depigmentation efficacy”.
In the case of `Oc1ccc(C2CCCC2)c(O)c1` [4-cyclopentylresorcinol], in the data set on Yucatan swine skin, the irritation result is “No irritation was apparent”. Moreover, the “repigmentation after discontinuation of treatment” value in data set [1] is on record as “signs of gradual repigmentation”. Further, the “pigmentation versus the same agent in PG/EtOH vehicle” value in data set [2] (1% and 2% in HG/PG/DMI/EtOH compared with PG/EtOH) was “not statistically different”. Further, in data set [2] (1% and 2% in HG/PG/DMI/EtOH, Kruskal-Wallis test and Dunnett's multiple comparison), the “pigmentation versus vehicle control” value was “statistically different from vehicle”. Moreover, in data set [2] (1% in DMI/HG/PG/EtOH, 0 = complete depigmentation), the “Mean pigment Grade +/− SD (Week 12)” value is given as 2.8 +/− 0.4*. The “mean pigment grade +/− SD” value in data set [2] (1% in HG/PG/DMI/EtOH (5/40/15/40)) was 2.8 +/−0.6*; in data set [2] (1% in HG/PG/DMI/EtOH + 2% IPM) it was 2.0 +/− 1.2*; in data set [2] (1% in PG/EtOH (3/7), 0 = complete depigmentation), 3.3 +/− 0.7; in data set [2] (setting [3]), 2.0 +/− 0.7*; in data set [2] (2% in HG/PG/DMI/EtOH + 2% IPM), 1.4 +/− 0.9*; in data set [2] (2% in PG/EtOH (3/7)), 2.4 +/− 0.9*. Further, the “effect of HG/PG/DMI/EtOH vehicle on depigmenting action” value in data set [2] is “improved the depigmentation efficacy”.

(Values after US20060257340A1, “Formulation for skin-lightening agents” (priority 2003, published 2006).)
